Laboratory results reported in patent publication US4656166A, “Antibiotic compounds derived from cephalosporins, process for their production and pharmaceutical compositions” (Sanofi, priority 1983, dated 1987).
In brackets after ≈: the same amount, converted by molar mass. Like-named read-outs stand apart in the source and are kept apart here.

What was measured:
Format in all cases: cell-based
[1] = test system: Pseudomonas RL 112; assay: MIC, in vitro dilution method, Pseudomonas RL 112 (Table III); details: RL112
Outline: (§1)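 Compounds are serially diluted in vitro and tested for bacteriostatic effect on each Gram-negative strain; the lowest inhibiting concentration is recorded as MIC (μg/ml).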

[2] = test system: Escherichia coli SOL 90; assay: MIC, in vitro dilution method, Escherichia coli SOL 90 (Table III); details: SOL90
Outline: as §1

[3] = test system: Serrtia liquefaciens SL 1326 S; assay: MIC on strain not producing beta-lactamase, Serratia liquefaciens SL 1326 S (Table IV); details: SL1326S, not producing beta-lactamases
Method: (§2) To evaluate the stability of these products towards beta-lactamases, their MIC was determined on isogenic strains producing and not producing beta-lactamases.
(§3) The results are expressed in μg/ml in Table IV.

[4] = test system: Escherichia coli 255/L.7; assay: MIC on strain not producing beta-lactamase, Escherichia coli 255/L.7 (Table IV); details: Escherichia coli 255/L.7 *, not producing beta-lactamases; read-out: MIC
Method: as §2, §3

[5] = test system: Proteus vulgaris GN 76/C.1/3; assay: MIC on strain not producing beta-lactamase, Proteus vulgaris GN 76/C.1/3 (Table IV); details: GN76, not producing beta-lactamases
Method: as §2, §3

[6] = test system: Serrtia liquefaciens SL/326 A; assay: MIC on beta-lactamase producing strain Serratia liquefaciens SL/326 A (Table IV)
Method: as §2, §3

[7] = test system: Escherichia coli 255; assay: MIC on beta-lactamase producing strain Escherichia coli 255 (Table IV); details: Escherichia coli 255, producing beta-lactamases; read-out: MIC
Method: as §2, §3

[8] = test system: Serratia RL 72; assay: MIC, in vitro dilution method, Serratia RL 72 (Table III); details: RL72
Outline: as §1

[9] = test system: Enterobacter RO 154; assay: MIC, in vitro dilution method, Enterobacter RO 154 (Table III); details: RO154
Outline: as §1

[10] = test system: Proteus vulgaris RL 99 bis; assay: MIC, in vitro dilution method, Proteus vulgaris RL 99 bis (Table III); details: RL99BIS
Outline: as §1

[11] = test system: Proteus vulgaris GN 76/C.1; assay: MIC on beta-lactamase producing strain Proteus vulgaris GN 76/C.1 (Table IV); details: GN76
Method: as §2, §3

[12] = test system: Citrobacter RL 49; assay: MIC, in vitro dilution method, Citrobacter RL 49 (Table III); details: RL49
Outline: as §1

[13] = test system: Klebsiella RO 30; assay: MIC, in vitro dilution method, Klebsiella RO 30 (Table III); details: RO30
Outline: as §1

[14] = Escherichia coli SOL 90, dilution method, read-out: MIC
[15] = Enterobacter RO 154, dilution method, read-out: MIC
[16] = Citrobacter RL 49, dilution method, read-out: MIC
[17] = Klebsiella RO 30, dilution method, read-out: MIC
[18] = Proteus vulgaris RL 99 bis, dilution method, read-out: MIC
[19] = Proteus vulgaris GN 76/C.1, producing beta-lactamases, read-out: MIC

SMILES | MIC [1] [µg/mL] | MIC [2, 14] [µg/mL] | MIC [3] [µg/mL] | MIC [4] [µg/mL] | MIC [5] [µg/mL] | MIC [6] [µg/mL] | MIC [7] [µg/mL] | MIC [8] [µg/mL] | MIC [9, 15] [µg/mL] | MIC ([10]; Proteus vulgaris) [µg/mL] | MIC ([11]; Proteus vulgaris) [µg/mL] | MIC [12, 16] [µg/mL] | MIC [13, 17] [µg/mL] | MIC ([9]; Enterobacter) [µg/mL] | MIC ([12]; Citrobacter) [µg/mL] | MIC ([13]; Klebsiella) [µg/mL] | MIC ([2]; Escherichia coli) [µg/mL] | MIC [10, 18] [µg/mL] | MIC [11, 19] [µg/mL]
Cc1ccc(CN)c(C)c1C(=O)OCC1=C(C(=O)O)N2C(=O)C(NC(=O)/C(=N\OC(C)(C)C(=O)O)c3csc(N)n3)C2[S+]([O-])C1 (centres unmarked) [42 457] | 8 (≈ 12.1 µM) | 0.5 (≈ 0.754 µM) | 0.0625 (≈ 0.0943 µM) | ≤ 0.0312 | 0.0625 (≈ 0.0943 µM) | 0.0625 (≈ 0.0943 µM) | 0.125 (≈ 0.189 µM) | 0.5 (≈ 0.754 µM) | 0.25 (≈ 0.377 µM) | ≤ 0.125 | ≤ 0.0312 | 0.25 (≈ 0.377 µM) | 0.25 (≈ 0.377 µM) | – | – | – | – | – | –
Cc1c(CN)cccc1C(=O)OCC1=C(C(=O)O)N2C(=O)C(NC(=O)/C(=N\OC(C)(C)C(=O)O)c3csc(N)n3)C2[S+]([O-])C1 (centres unmarked) [42 456] | 4 (≈ 6.17 µM) | 0.25 (≈ 0.385 µM) | 0.0625 (≈ 0.0964 µM) | ≤ 0.0312 | 0.125 (≈ 0.193 µM) | 0.25 (≈ 0.385 µM) | 0.0625 (≈ 0.0964 µM) | 0.5 (≈ 0.771 µM) | – | ≤ 0.125 | ≤ 0.0312 | – | – | ≤ 0.125 | ≤ 0.125 | ≤ 0.125 | – | – | –
CNCc1ccc(C(=O)OCC2=C(C(=O)O)N3C(=O)C(NC(=O)/C(=N\OC(C)(C)C(=O)O)c4csc(N)n4)C3[S+]([O-])C2)cc1 (centres unmarked) [42 395] | 4 (≈ 6.17 µM) | – | ≤ 0.0312 | 0.0625 (≈ 0.0964 µM) | ≤ 0.0312 | 0.125 (≈ 0.193 µM) | 0.0625 (≈ 0.0964 µM) | 0.5 (≈ 0.771 µM) | – | ≤ 0.125 | ≤ 0.0312 | – | – | ≤ 0.125 | ≤ 0.125 | ≤ 0.125 | ≤ 0.125 | – | –
CC(C)(ON=C(C(=O)NC1C(=O)N2C(C(=O)O)=C(CSC(=O)C3CCCNC3)C[S+]([O-])C12)c1csc(N)n1)C(=O)O (centres unmarked) [compound 42074] | 8 (≈ 12.7 µM) | 1 (≈ 1.59 µM) | 0.12 (≈ 0.191 µM) | 0.25 (≈ 0.398 µM) | – | 0.25 (≈ 0.398 µM) | 0.5 (≈ 0.795 µM) | 4 (≈ 6.36 µM) | 8 (≈ 12.7 µM) | – | – | 0.5 (≈ 0.795 µM) | 0.5 (≈ 0.795 µM) | – | – | – | – | 0.5 (≈ 0.795 µM) | 0.5 (≈ 0.795 µM)
CC(N)CC(=O)OCC1=C(C(=O)O)N2C(=O)C(NC(=O)C(=NOC(C)(C)C(=O)O)c3csc(N)n3)C2[S+]([O-])C1 (centres unmarked) [42 024] | 4 (≈ 6.82 µM) | 0.5 (≈ 0.852 µM) | 0.06 (≈ 0.102 µM) | ≤ 0.12 | – | 0.25 (≈ 0.426 µM) | 0.25 (≈ 0.426 µM) | 0.5 (≈ 0.852 µM) | 2 (≈ 3.41 µM) | – | – | 0.5 (≈ 0.852 µM) | 0.25 (≈ 0.426 µM) | – | – | – | – | 0.25 (≈ 0.426 µM) | 0.25 (≈ 0.426 µM)
CC(C)(ON=C(C(=O)NC1C(=O)N2C(C(=O)O)=C(CSC(=O)c3ccc(NC(=O)CN)cc3)C[S+]([O-])C12)c1csc(N)n1)C(=O)O (centres unmarked) [compound 42664] | 8 (≈ 11.5 µM) | 1 (≈ 1.44 µM) | 0.0625 (≈ 0.0901 µM) | 0.0625 (≈ 0.0901 µM) | 0.25 (≈ 0.36 µM) | 0.25 (≈ 0.36 µM) | 0.25 (≈ 0.36 µM) | 4 (≈ 5.77 µM) | 4 (≈ 5.77 µM) | – | – | – | 0.5 (≈ 0.721 µM) | – | – | – | – | – | 0.125 (≈ 0.18 µM)
NCC(=O)Nc1nc(C(=O)OCC2=C(C(=O)O)N3C(=O)C(NC(=O)C(=NOC4(C(=O)O)CCC4)c4csc(N)n4)C3[S+]([O-])C2)cs1 (centres unmarked) [42 547] | 4 (≈ 5.74 µM) | 0.5 (≈ 0.718 µM) | 0.125 (≈ 0.179 µM) | ≤ 0.0312 | 0.25 (≈ 0.359 µM) | 2 (≈ 2.87 µM) | 0.125 (≈ 0.179 µM) | 0.5 (≈ 0.718 µM) | 0.5 (≈ 0.718 µM) | ≤ 0.125 | – | 0.25 (≈ 0.359 µM) | 0.25 (≈ 0.359 µM) | – | – | – | – | – | 0.0625 (≈ 0.0897 µM)
CNCc1ccc(C(=O)SCC2=C(C(=O)O)N3C(=O)C(NC(=O)C(=NOC(C)(C)C(=O)O)c4csc(N)n4)C3[S+]([O-])C2)cc1 (centres unmarked) [compound 42533] | 8 (≈ 12 µM) | 0.5 (≈ 0.752 µM) | ≤ 0.0312 | 0.0625 (≈ 0.094 µM) | 0.125 (≈ 0.188 µM) | 0.125 (≈ 0.188 µM) | 0.125 (≈ 0.188 µM) | 1 (≈ 1.5 µM) | 0.5 (≈ 0.752 µM) | ≤ 0.125 | 0.0625 (≈ 0.094 µM) | 0.25 (≈ 0.376 µM) | 0.25 (≈ 0.376 µM) | – | – | – | – | – | –
CC(C)(O/N=C(\C(=O)NC1C(=O)N2C(C(=O)O)=C(COC(=O)c3cccc(CN)c3)C[S+]([O-])C12)c1csc(N)n1)C(=O)O (centres unmarked) [42 320] | 4 (≈ 6.3 µM) | – | ≤ 0.0312 | 0.0625 (≈ 0.0985 µM) | 0.125 (≈ 0.197 µM) | 0.125 (≈ 0.197 µM) | 0.0625 (≈ 0.0985 µM) | 0.5 (≈ 0.788 µM) | – | ≤ 0.125 | ≤ 0.0312 | – | – | ≤ 0.125 | ≤ 0.125 | ≤ 0.125 | ≤ 0.125 | – | –
